Measurements from ChEMBL document CHEMBL3124747, “Formosusin A, a novel specific inhibitor of mammalian DNA polymerase β from the fungus Paecilomyces formosus” (Bioorg Med Chem, 2014).

Experiments:
[1] = target: T1, DNA polymerase lambda (Mus musculus, UniProt Q9QXE2); assay: Inhibition of mouse DNA polymerase lambda assessed as inhibition of incorporation of dTTP into poly(dA)/oligo(dT)18 after 60 mins
T1 sequence (Q9QXE2 whole entry): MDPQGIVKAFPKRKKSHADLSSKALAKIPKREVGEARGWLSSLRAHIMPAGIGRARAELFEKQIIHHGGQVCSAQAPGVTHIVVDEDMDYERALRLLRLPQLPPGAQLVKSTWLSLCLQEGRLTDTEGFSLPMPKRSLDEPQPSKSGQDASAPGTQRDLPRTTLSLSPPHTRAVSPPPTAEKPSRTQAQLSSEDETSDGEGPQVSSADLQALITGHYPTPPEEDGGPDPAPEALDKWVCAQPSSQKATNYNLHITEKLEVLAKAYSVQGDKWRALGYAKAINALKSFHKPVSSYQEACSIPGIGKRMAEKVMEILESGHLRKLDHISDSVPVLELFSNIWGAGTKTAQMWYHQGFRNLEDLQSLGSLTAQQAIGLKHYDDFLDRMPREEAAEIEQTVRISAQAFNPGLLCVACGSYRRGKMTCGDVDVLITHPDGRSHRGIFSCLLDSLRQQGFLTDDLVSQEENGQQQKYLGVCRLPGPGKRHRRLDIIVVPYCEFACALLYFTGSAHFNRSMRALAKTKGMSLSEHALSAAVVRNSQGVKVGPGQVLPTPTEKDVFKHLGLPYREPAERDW

[2] = target: T2, DNA-directed DNA polymerase (Enterobacteria phage T4, UniProt P04415); assay: Inhibition of T4 bacteriophage DNA polymerase assessed as inhibition of incorporation of dTTP into poly(dA)/oligo(dT)18 after 60 mins; set-up: species or system Tequatrovirus T4
T2 sequence (P04415 whole entry): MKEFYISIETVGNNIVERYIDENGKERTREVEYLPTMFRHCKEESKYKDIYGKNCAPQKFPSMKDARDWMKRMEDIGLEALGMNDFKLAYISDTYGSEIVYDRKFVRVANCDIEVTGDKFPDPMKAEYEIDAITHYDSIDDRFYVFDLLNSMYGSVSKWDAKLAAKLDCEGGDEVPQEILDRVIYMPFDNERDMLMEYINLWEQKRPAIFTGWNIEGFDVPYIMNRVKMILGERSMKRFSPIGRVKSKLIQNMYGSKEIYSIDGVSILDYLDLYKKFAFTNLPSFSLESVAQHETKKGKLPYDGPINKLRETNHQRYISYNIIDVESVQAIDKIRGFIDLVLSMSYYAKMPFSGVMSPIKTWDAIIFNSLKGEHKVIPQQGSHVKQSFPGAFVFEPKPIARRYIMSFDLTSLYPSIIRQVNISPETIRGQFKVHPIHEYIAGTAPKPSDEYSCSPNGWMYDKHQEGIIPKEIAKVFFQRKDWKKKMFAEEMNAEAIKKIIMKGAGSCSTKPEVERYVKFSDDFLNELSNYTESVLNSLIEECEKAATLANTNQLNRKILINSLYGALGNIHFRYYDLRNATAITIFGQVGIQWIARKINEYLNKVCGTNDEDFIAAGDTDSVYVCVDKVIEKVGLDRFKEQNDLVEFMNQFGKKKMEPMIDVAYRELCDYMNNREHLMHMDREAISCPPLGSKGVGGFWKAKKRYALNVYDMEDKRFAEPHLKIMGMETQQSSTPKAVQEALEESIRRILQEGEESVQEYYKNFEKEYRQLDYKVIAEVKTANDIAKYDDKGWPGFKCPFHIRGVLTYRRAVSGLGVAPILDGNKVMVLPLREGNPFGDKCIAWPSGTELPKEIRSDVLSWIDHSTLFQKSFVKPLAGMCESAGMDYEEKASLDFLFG

[3] = target: T3, DNA polymerase kappa (Homo sapiens, UniProt Q9UBT6); assay: Inhibition of C-terminal His-6-tagged human DNA polymerase kappa expressed in Escherichia coli assessed as inhibition of incorporation of dTTP into poly(dA)/oligo(dT)18 after 60 mins
T3 sequence (Q9UBT6 whole entry): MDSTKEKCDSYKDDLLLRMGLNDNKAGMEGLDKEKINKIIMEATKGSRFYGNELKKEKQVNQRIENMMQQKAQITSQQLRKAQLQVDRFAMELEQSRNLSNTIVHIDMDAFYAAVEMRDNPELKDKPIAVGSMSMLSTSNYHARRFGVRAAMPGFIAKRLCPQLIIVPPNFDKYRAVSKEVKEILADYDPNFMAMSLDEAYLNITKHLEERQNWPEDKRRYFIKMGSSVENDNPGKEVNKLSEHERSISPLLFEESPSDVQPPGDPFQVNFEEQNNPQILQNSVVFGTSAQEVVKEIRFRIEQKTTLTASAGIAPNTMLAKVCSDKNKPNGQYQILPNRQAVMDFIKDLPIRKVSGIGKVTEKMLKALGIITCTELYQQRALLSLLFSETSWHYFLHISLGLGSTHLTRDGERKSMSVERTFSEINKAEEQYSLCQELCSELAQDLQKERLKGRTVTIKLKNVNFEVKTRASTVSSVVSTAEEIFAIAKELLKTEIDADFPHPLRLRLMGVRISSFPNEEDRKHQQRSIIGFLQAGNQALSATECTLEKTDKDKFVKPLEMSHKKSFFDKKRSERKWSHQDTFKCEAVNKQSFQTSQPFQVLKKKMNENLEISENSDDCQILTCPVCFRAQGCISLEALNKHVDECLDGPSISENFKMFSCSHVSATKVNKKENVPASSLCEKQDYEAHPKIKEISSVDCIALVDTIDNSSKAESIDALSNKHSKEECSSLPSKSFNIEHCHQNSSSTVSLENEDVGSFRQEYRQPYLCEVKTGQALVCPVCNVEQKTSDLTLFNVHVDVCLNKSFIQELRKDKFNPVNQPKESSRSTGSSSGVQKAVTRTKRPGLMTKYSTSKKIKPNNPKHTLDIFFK

[4] = target: T4, DNA polymerase lambda (Homo sapiens, UniProt Q9UGP5); assay: Inhibition of human recombinant His-tagged DNA polymerase lambda expressed in Escherichia coli assessed as inhibition of incorporation of dTTP into poly(dA)/oligo(dT)18 after 60 mins
T4 sequence (Q9UGP5 whole entry): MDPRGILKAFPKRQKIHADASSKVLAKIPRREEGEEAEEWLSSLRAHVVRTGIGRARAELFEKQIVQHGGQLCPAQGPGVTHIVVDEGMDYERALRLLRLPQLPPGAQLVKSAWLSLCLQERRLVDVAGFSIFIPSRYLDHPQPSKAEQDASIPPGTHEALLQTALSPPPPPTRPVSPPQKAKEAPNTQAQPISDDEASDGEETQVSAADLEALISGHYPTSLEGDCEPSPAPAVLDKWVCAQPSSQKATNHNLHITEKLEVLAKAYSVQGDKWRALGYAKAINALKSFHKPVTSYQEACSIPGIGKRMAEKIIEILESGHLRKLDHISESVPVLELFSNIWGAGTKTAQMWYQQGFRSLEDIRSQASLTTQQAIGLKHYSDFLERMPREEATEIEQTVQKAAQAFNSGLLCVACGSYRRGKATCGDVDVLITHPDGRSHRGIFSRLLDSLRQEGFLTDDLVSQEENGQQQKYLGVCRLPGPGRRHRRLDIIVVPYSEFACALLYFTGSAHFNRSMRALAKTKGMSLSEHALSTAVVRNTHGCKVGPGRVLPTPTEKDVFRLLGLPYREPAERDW

Measured: IC50

CCCCC(=O)/C=C(C)/C=C/CCC(=O)N1CCCC1=O
> 200 µM: [1] | [2] | [3] | [4]

CCCC[C@@H](O)/C=C(C)/C=C/C=C\C(=O)N1CCCC1=O
> 200 µM: [1] | [2] | [3] | [4]

CCCC[C@@H](O)/C=C(C)/C=C/C=C/C(=O)N1CCCC1=O [PECILOCIN]
> 200 µM: [1] | [2] | [3] | [4]

CC(/C=C/CCC(=O)N1CCCC1=O)=C\C1CCCCO1 (stereo unspecified)
> 200 µM: [1] | [2] | [3] | [4]
